Tests used:
RBE cell lines [1] = assay: cells; settings: Homo sapiens, 48 h, read-out: IC50, antiproliferation activities in RBE
RBE cells = assay: Intracellular NO measurement with fluorescent probe DAF-FM DA (flow cytometry); format: cell-based, human; settings: 2 μM, 2.5 h; for MFI (fold of RRx-001), intracellular NO: DAF-FM DA
Protocol: Intracellular NO was measured with 3-amino,4-aminomethyl-2′,7′-diflfluorescein, diacetate (DAF-FM DA, Beyotime, Shanghai, China). In detail, RBE cells in the logarithmic growth phase were collected and spread on 6-well plate at a density of 150,000 per well overnight. The adherent cells were pretreated with 5 μM DAF-FM DA at 37 °C for 20 min and then incubated with RRx-001, compounds 2–6 and 21 for 2.5 h, followed by flow cytometer analysis (BD Accuri C6, Shanghai, China). Cells were washed three times with cold PBS between each step. The experiment was performed three times.

[2] = tested on: Cyclin B1, PARP and Caspase-3 in RBE cell lines; assay: Western blot analysis of cell-cycle- and apoptosis-related proteins; format: cell-based, human; settings: 1 and 4 μM
Protocol: Approximately 2 × 10^5 cells of RBE were seeded in 6-well plates. After treated with compound 3 (1 and 4 μM) for 24 h, cells were lysed with ice-cold RIPA lysis buffer (Beyotime, Shanghai, China) for 30 min and then centrifuged at 12,000 rpm for 10 min at 4 °C. The total protein concentration was determined by BCA protein assay kit (Beyotime, Shanghai, China). Equal amounts (20 μg per load) of protein samples were subjected to 12% SDS-PAGE gel and transferred onto polyvinylidene fluoride (PVDF) membranes (Epizyme Biotech, Shanghai, China), which were then blocked with 5% bovine serum albumin (Ebsdorfelgrund, Hesse, Germany) for 1.5 h and reacted with primary antibodies (1: 1000 diluted) at 4 °C overnight. Subsequently, the PVDF membranes were incubated in the secondary antibody (1: 10,000 diluted) for 2 h at room temperature. ECL chemiluminescent solution was used for color rendering. The antibodies against Cyclin B1, Caspase 3, and PARP were purchased from Cell Signaling Technology. The secondary antibodies conjugated with horseradish peroxidase (HRP) were from AoWei Biology and CST. The protein bands were developed by the chemiluminescent reagents (Meilunbio, Shanghai, China).

RBE cell lines [3] = assay: Cell cycle analysis (PI staining, flow cytometry); format: cell-based, human; settings: 1 μM
Protocol: The experimental cells RBE were cultured and collected when the cells were in good growth state. After digesting with 0.25% trypsin (Beyotime), the cells were collected and centrifuged. The cells were inoculated in petri dishes (Φ = 6 cm) with an inoculation density of 500,000 cells per dish and 3 mL medium per dish. The cells were placed in the incubator, changed to serum-free RPMI 1640 medium after 12 h, left to continue to culture for 12 h, and then compounds were added. Compounds groups with the concentration of 1 μM and control group treated with DMSO were set. The original culture medium was removed, and the compounds were added. After incubation for 16h, the cells were collected and centrifuged at 1000 r for 5 min. The cells were rinsed twice with PBS, and the supernatant was removed by centrifugation. 75% ethanol (1 mL) was added and placed in a refrigerator at −20 °C overnight for cell fixation.
The fixed cells were centrifuged at 2000 r for 5 min, the supernatant was discarded, 1 mL of PBS solution was added, and the supernatant was resuspended and discarded. 0.5 mL of PI staining solution was added to each tube (staining buffer: 20 × PI staining solution: 50 × RNase A = 100:5:2) and stored at room temperature for 30 min in the dark for testing on the flow cytometry.

Row | melting point [°C] | Structure (SMILES) | IC50 (RBE cell lines [1]) [µM] | MFI (fold of RRx-001), intracellular NO (RBE cells) | other results
1 | 122.5 to 124.1 | Cc1c(Cc2ccc(C#N)cc2)c(=O)oc2cc(OCCN3CC([N+](=O)[O-])([N+](=O)[O-])C3)ccc12 |  |  | 
2 | 135.1 to 136.3 | Cc1c(Cc2ccc(C#N)cc2)c(=O)oc2cc(OCCCCN3CC([N+](=O)[O-])([N+](=O)[O-])C3)ccc12 |  |  | 
3 | 137.9 to 139.2 | Cc1c(Cc2ccc(F)cc2)c(=O)oc2cc(OCCN3CC([N+](=O)[O-])([N+](=O)[O-])C3)ccc12 |  |  | 
4 | 113.3 to 115.1 | Cc1c(Cc2ccc(F)cc2)c(=O)oc2cc(OCCCCN3CC([N+](=O)[O-])([N+](=O)[O-])C3)ccc12 |  |  | 
5 | 173 to 175 | Cc1c(Cc2ccccc2)c(=O)oc2cc(OCCN3CC([N+](=O)[O-])([N+](=O)[O-])C3)ccc12 |  |  | 
6 | 115.1 to 116.8 | Cc1c(Cc2ccccc2)c(=O)oc2cc(OCCCN3CC([N+](=O)[O-])([N+](=O)[O-])C3)ccc12 |  |  | 
7 | 91 to 93 | Cc1cc(=O)oc2cc(OCCN3CC([N+](=O)[O-])([N+](=O)[O-])C3)ccc12 |  |  | 
8 | 78.5 to 79.6 | Cc1cc(=O)oc2cc(OCCCN3CC([N+](=O)[O-])([N+](=O)[O-])C3)ccc12 |  |  | 
9 | 82.5 to 84.5 | Cc1cc(=O)oc2cc(OCCOCC(=O)N3CC([N+](=O)[O-])([N+](=O)[O-])C3)ccc12 |  |  | 
10 | 98 to 99.8 | Cc1c(Cc2ccc(C(F)(F)F)cc2)c(=O)oc2cc(OCCN3CC([N+](=O)[O-])([N+](=O)[O-])C3)ccc12 |  |  | 
11 |  | O=C(CBr)N1CC([N+](=O)[O-])([N+](=O)[O-])C1 [RRx-001, reference compound] | 2 | 1 fold of RRx-001 | 

Row | Structure (SMILES) | melting point [°C] | IC50 (RBE cell lines [1]) [µM] | MFI (fold of RRx-001), intracellular NO (RBE cells) | other results
12 | Cc1c(Cc2ccc(C(F)(F)F)cc2)c(=O)oc2cc(OCCOCC(=O)N3CC([N+](=O)[O-])([N+](=O)[O-])C3)ccc12 [Compound 2, 7-(2-(2-(3,3-Dinitroazetidin-1-yl)-2-oxoethoxy)ethoxy)-4-methyl-3-(4-(trifluoromethyl)benzyl)-2H-chromen-2-one] | 65.3 to 67 | 1.11 | 0.95 fold of RRx-001 | 
13 | Cc1c(Cc2ccc(C#N)cc2)c(=O)oc2cc(OCCOCC(=O)N3CC([N+](=O)[O-])([N+](=O)[O-])C3)ccc12 [Compound 3, 4-((7-(2-(2-(3,3-Dinitroazetidin-1-yl)-2-oxoethoxy)ethoxy)-4-methyl-2-oxo-2H-chromen-3-yl)methyl)benzonitrile] | 74.9 to 76.3 | 0.95 | 1.36 fold of RRx-001 | expression of PARP, Caspase-3 and Cyclin B1 (Western blotting) [2]: downregulated; NO release level in RBE cells (in words) (RBE cells; compared to RRx-001): highest NO release concentration; cell cycle effect (in words) (RBE cell lines [3]): arrest the cell cycle at G2/M phase; mean percentage of cells in the G2/M phase (RBE cell lines [3]; DMSO control 18%): 23%
14 | Cc1c(Cc2ccc(F)cc2)c(=O)oc2cc(OCCOCC(=O)N3CC([N+](=O)[O-])([N+](=O)[O-])C3)ccc12 [Compound 4, 7-(2-(2-(3,3-Dinitroazetidin-1-yl)-2-oxoethoxy)ethoxy)-3-(4-fluorobenzyl)-4-methyl-2H-chromen-2-one] | 70 to 71.9 | 0.89 | 0.86 fold of RRx-001 | 
15 | Cc1c(Cc2ccccc2)c(=O)oc2cc(OCCOCC(=O)N3CC([N+](=O)[O-])([N+](=O)[O-])C3)ccc12 [Compound 5, 3-Benzyl-7-(2-(2-(3,3-dinitroazetidin-1-yl)-2-oxoethoxy)ethoxy)-4-methyl-2H-chromen-2-one] | 82.5 to 84.5 | 0.71 | 0.83 fold of RRx-001 | 
16 | Cc1cc(=O)oc2cc(OCCCCN3CC([N+](=O)[O-])([N+](=O)[O-])C3)ccc12 [Compound 21, 7-(4-(3,3-Dinitroazetidin-1-yl)butoxy)-4-methyl-2H-chromen-2-one] | 85.8 to 87.2 | 1.09 | 1.13 fold of RRx-001 | 
